Measured values: patent publication US6821326B2 (Arch Chemicals, Inc., priority 2002, dated 2004)

Columns and labels:
[1] = Particle size analysis on a Horiba Laser light scattering particle size analyzer; format: physicochemical; conditions: commercial powder before low shear mixing into xylene dispersion (Comparative Example A)
Method: As a comparison to the dispersions of the present invention, 13 grams “LAROFLEX MP25” polymer resin (vinyl chloride-isobutyl vinyl ether copolymer, a product of BASF Corporation, Charlotte, N.C.) was dissolved into 832 grams of xylene. […] The mixture was stirred at low speed (1000 rpm) and with low shear for 0.5 hours to provide adequate mixing until a homogenous mixture was achieved.
The diluted sample was then run though a Mini Zeta Netzsch mill for 150 minutes at 2000 rpm.

[2] = rats, powder, compared with zinc pyrithione powder; cited from earlier work

On1ccccc1=S.On1ccccc1=S.[Cu] [Copper Pyrithione, copper pyrithione]
Mean Particle Size [1]: 3.09 Microns
Median Particle Size [1]: 3.40 Microns
acute inhalation toxicity [2]: more toxic than zinc pyrithione powder
